Assay results reported in patent US10722491B2, “Phenol compound and combination of same with a benzodiazepine fused to 1,4-dihydropyridine for treating diseases of the central nervous and vascular systems” (UNIVERSIDAD DE LA HABANA, priority 2016, dated 2020).

How the values were obtained:
[1] = tested on: animals damaged with 6-OHDA; assay: 6-OHDA Parkinson's model, vertical exploratory activity; assay type: in vivo, rats
[2] = O2.- radical scavenging in the pyrogallol autoxidation test; assay type: biochemical
Procedure: FIG. 2. Activity of KM-34 (5-100 μM) as radical scavenger O2.− expressed as the percentage inhibition of autoxidation of pyrogallol. The same was obtained by varying the absorbance at 420 nm for 1 minute with respect to a blank uninhibited reaction: without KM-34; the slope was calculated for each concentration of the sample and for the target with a R2>0.98. The reaction takes place in […] Tris-HCl pH 8.2 buffer and was initiated by the addition of 0.134 mM Pirogalol*P<0.05 to the carrier (uninhibited reaction).
A non-enzymatic system generating these radicals was used to evaluate the O2.^− sequestration activity of KM-34, which catalyzes the autoxidation of pyrogallol, forming a colored compound that absorbs at 420 nm (Marklund, 1985).

rat brain homogenate = assay: Spontaneous or Fe3+/AA-induced lipid peroxidation (POL) in rat brain homogenate; assay type: biochemical; settings: 37° C 1 hour, MDA
Procedure: FIG. 5. Effects of KM-34 (0.01-100 μM) on spontaneous lipid peroxidation and e induced by 100 mM FeCl3 and 100 mM AA. The control contains absolute ethanol instead of KM-34. The samples were incubated at 37° C for 1 hour and then the MDA levels were quantified by thiobarbituric acid (ATB) and the absorbance was determined at 532 nm. Values are expressed as the mean ± SD (n=3). *P<0.05 with respect to the control.
The brain homegenate is rich in phospholipids, which undergo spontaneous or induced autoxidation by the presence of FeCl3 and AA, where the latter is oxidized at the expense of the metal being reduced and thus the ion is available to catalyze the Fenton-Habber reaction-Weiss (Hiroi et al., 2005; Kooncumchoo, 2005).

[3] = tested on: animals damaged with 6-OHDA; assay: 6-OHDA Parkinson's model, cylinder test; assay type: in vivo, rats; settings: 7 days after 6-OHDA damage
[4] = Spectrophotometric evidence of interactions between KM-34 and Fe2+; assay type: physicochemical; settings: 100 μM KM-34; FeCl2 50, 100 and 200 μM; pH 7.4
Procedure: FIG. 4. Maximum absorption data on UV-VIS (200-500 nm) of the 100 μM KM-34 in a mixture of 10 mM phosphate buffer (KH2PO4/ KOH) pH 7.4 and absolute ethanol 14:1 (v:v) and The absorbance in the presence of FeCl2 (50, 100 and 200 μM) dissolved in 10mM HCL.
In order to verify the existence of possible interactions between KM-34 and Fe2+ (through modifications in their spectra), the following results were obtained:
This could indicate possible interactions between Fe2+ and KM-34 where the ion is stabilized at Fe3+ by unsaturated ligands due to the stabilization of the larger crystalline field from an electron configuration d6 (Fe2+) to a d5 (Fe3+) (Hider et al., 1981, Hider et al., 1983). This justifies the response obtained in the oxidative degradation test of DR where it was observed that the KM-34 in these conditions seems to act more as a coordinator of Fe2+ than as a .OH scavenger.

[5] = tested on: scopolamine cognitive deficit; assay: Scopolamine-induced dementia, new-object recognition; assay type: in vivo, rats; settings: 4 and 8 mg/kg p.o., 1 hour before scopolamine 1 mg/kg i.p.
Procedure: FIG. 12. Effect of KM-34 on the recognition memory of new objects. In the new-object recognition test, KM-34 (2, 4 and 8 mg/kg, p.o) was administered 1 hour prior to scopolamine (1 mg/kg, i.p.) prior to the training phase. The results are expressed as the discrimination rate of the total time by scanning the object N with respect to F. The data are expressed as mean ± SD (n=8, per group). For statistical analysis, ANOVA and Tukey's multiple comparison test were performed. Different letters differ from each other for p<0.01.
In in vivo models, KM-34 was administered orally (p.o) at a rate of 4 mL/kg body weight. Doses of 2, 4 and 8 mg/kg were evaluated as acute administration 90 minutes before the start of behavioral tests. For administration the compound was suspended in carboxymethylcellulose (CMC) 0.05%. Scopolamine bromide was dissolved in 0.9% saline solution and administered intraperitoneally as a single dose (1 mg/kg, 4 mL/kg body weight) 30 minutes prior to the initiation of the behavioral tests. […]
This trial was conducted as proposed by Capurro et al. (Capurro et al., 2013), in an open field, on two successive days. […] The tests were video-recorded for the analysis of the exploration of the objects, defined by the time of exploration that the animal performs to each object. The discrimination rates between the F and N objects were calculated as: ID=(N−F)/(N+F).

CC1(C)OC(=O)C(=Cc2ccc(O)c(O)c2)C(=O)O1 [KM-34, 5-[(3,4-dihydroxyphenyl)methylidene]-2,2-dimethyl-1,3-dioxane-4,6-dione]
Vertical exploratory behavior ([1]; 0.5 and 1 mg doses, vs damaged animals): did not show statistically significant differences
Vertical exploratory behavior ([1]; maximum dose 2 mg/Kg): statistically significant differences with respect to damaged animals
Concentration significantly (p<0.05) inhibiting formation of oxidized pyrogallol vs vehicle [2]: greater than 5 μM
IC50 ([2]; Tris-HCl pH 8.2, read-out: IC50, inhibition of autoxidation of pyrogallol (O2.- scavenging)): 11 µM
Inhibition of oxidation of pyrogallol ([2]; from 50 μM): totally inhibited
Concentration significantly inhibiting Fe3+/AA-induced POL (rat brain homogenate; induced by FeCl3 and AA): > 10 µM
Concentration significantly inhibiting spontaneous POL (rat brain homogenate; spontaneous lipid peroxidation): higher than 0.1 μM
% asymmetry, cylinder test ([3]; 0.5 mg/kg): no statistically significant difference with respect to the damaged group without treatment
% asymmetry, cylinder test ([3]; 2 mg/kg and 1 mg/kg): equal to the animals (healthy) animals
Absorbance of KM-34 at absorption maxima 262, 345 and 472 nm in presence of Fe2+ [4]: is modified as the concentration of the ferrous ion increases
Recognition memory, discrimination index of new objects [5]: able to revert the affectation on the learning and the memory of term recognition induced by scopolamine
